The target of experiment [1] is T1, Bifunctional 3'-5' exonuclease/ATP-dependent helicase WRN [480-1251] (UniProt Q14191).
T1 construct: 480-1251
The experiment is described as follows: Biochemical Activity Assays.

Experiment [2] deals with Bifunctional 3'-5' exonuclease/ATP-dependent helicase WRN (Homo sapiens, UniProt Q14191). The experiment is described as follows: ADP-Glo Kinase Assay. As for the experimental part: ATPase activity was measured using the ADP-Glo Kinase Assay following the manufacturers recommended protocol.
Chain of Bifunctional 3'-5' exonuclease/ATP-dependent helicase WRN (Q14191 whole entry): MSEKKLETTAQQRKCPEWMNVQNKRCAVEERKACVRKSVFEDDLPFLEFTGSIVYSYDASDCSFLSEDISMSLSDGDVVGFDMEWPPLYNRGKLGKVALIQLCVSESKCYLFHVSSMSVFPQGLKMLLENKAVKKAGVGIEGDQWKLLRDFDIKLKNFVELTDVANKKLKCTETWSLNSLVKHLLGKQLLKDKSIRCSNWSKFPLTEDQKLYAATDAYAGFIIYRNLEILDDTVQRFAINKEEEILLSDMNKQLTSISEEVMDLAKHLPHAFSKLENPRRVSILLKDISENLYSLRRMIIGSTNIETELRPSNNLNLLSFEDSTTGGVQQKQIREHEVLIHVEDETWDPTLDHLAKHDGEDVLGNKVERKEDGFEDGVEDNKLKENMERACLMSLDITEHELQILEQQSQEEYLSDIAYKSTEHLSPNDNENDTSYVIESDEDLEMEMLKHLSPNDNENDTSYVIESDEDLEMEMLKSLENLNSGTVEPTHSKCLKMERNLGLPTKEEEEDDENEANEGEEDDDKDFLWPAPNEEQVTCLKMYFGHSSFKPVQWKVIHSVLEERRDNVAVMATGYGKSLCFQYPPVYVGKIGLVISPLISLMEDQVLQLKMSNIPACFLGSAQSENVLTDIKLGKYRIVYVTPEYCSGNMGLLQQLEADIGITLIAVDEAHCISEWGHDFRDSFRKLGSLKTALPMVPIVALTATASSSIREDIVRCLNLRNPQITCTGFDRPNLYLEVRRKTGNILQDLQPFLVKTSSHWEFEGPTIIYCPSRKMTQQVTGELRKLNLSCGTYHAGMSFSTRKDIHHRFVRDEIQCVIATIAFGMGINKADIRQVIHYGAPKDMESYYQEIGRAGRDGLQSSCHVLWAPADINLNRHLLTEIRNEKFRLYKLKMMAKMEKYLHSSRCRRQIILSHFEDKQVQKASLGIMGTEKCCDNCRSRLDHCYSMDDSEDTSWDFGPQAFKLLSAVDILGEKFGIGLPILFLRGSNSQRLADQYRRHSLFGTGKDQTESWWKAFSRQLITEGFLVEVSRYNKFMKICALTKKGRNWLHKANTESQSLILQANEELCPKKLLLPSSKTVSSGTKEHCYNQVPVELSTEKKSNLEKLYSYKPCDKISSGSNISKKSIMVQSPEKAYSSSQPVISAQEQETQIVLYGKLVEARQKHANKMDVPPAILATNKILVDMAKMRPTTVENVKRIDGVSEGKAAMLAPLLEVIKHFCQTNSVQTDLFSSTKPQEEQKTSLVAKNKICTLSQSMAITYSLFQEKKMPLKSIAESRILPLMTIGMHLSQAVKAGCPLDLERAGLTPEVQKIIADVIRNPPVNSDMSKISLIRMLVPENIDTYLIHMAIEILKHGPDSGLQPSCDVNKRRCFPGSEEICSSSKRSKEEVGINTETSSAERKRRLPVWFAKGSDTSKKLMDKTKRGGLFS
Background: ADP-Glo turns the ADP formed in a reaction into a luminescent signal.

T1 sequence (Q14191 480-1251): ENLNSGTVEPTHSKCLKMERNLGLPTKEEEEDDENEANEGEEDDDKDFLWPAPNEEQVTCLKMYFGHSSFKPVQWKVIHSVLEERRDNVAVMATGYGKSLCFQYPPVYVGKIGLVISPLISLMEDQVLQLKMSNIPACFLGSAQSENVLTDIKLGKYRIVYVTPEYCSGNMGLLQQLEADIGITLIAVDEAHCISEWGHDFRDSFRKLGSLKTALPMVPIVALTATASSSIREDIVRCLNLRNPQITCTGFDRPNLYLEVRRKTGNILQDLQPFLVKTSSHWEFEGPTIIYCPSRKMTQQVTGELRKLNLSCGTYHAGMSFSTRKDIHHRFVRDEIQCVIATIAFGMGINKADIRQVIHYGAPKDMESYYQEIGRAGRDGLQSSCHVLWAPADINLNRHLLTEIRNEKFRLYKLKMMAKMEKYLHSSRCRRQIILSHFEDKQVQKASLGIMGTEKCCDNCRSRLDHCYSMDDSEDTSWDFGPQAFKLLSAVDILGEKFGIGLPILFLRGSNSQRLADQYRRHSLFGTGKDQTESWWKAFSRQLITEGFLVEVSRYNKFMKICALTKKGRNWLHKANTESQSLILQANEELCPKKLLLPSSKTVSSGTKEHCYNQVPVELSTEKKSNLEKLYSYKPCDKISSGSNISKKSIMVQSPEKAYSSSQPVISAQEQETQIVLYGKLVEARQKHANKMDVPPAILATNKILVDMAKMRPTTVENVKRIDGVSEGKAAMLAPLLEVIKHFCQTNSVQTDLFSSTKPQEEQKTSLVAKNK

The IC50 is the concentration that inhibits the measured activity by half. Low readings indicate greater potency, high ones weaker potency. `CCc1c(N2CCN(C(=O)c3ncnc(C)c3O)CC2)c(=O)n2nc(-c3cc4c(cc3C)C(C)(C)OC4)nc2n1CC(=O)Nc1ccc(C(F)(F)F)cc1Cl` [WO2025049746, Example 213]: the half-maximal inhibitory concentration (IC50) was found to be 58 nM in experiment [1] and 85 nM in experiment [2].

Regarding `CCc1c(N2CCN(C(=O)c3nc4n(c(=O)c3O)CCOC4)CC2)c(=O)n2nc(N3C[C@H]4COC[C@H]4C3)nc2n1CC(=O)Nc1ccc(C(F)(F)F)cc1Cl` [WO2025049746, Example 93], the half-maximal inhibitory concentration (IC50) in experiment [1] stood at 320 nM; in experiment [2] it was 381 nM.

For `CCc1c(N2CCN(C(=O)c3ncnc(C)c3O)CC2)c(=O)n2nc(-c3ccc4c(c3F)CCOC4)nc2n1CC(=O)Nc1ccc(C(F)(F)F)cc1Cl` [WO2025049746, Example 217], the IC50 in experiment [1] was determined as 32 nM; in experiment [2], 31 nM.

For `CCc1c(N2CCN(C(=O)c3ncnc(C)c3O)CC2)c(=O)n2nc(-c3ccc4[nH]c(=O)ccc4c3)nc2n1CC(=O)Nc1ccc(C(F)(F)F)cc1Cl` [WO2025049746, Example 318], the half-inhibitory concentration (IC50) worked out at 24 nM in experiment [1] and 23 nM in experiment [2].

In the case of `CCc1c(N2CCN(C(=O)c3ncnc(C)c3O)CC2)c(=O)n2c(CO)c(-c3ccc4c(c3)COC4)nc2n1CC(=O)Nc1ccc(C(F)(F)F)cc1Cl` [WO2025049746, Example 452], the IC50 stood at 29700 nM in experiment [1] and 9850 nM in experiment [2].

Take `CCc1c(N2CCCC3C2CCN3C(=O)c2ncnc(C)c2O)c(=O)n2nc(C3=CCOCC3)nc2n1CC(=O)Nc1ccc(C(F)(F)F)cc1Cl` (stereo unspecified) [WO2025049746, Example 345]: the values for the concentration for half-maximal inhibition (IC50) in experiment [1] and in experiment [2] were 29700 nM and 7450 nM, respectively.

On to `CCc1c(N2CCN(C(=O)c3nc4n(c(=O)c3O)CCCC4)CC2)c(=O)n2nc(-c3ccc4c(c3)COC4)nc2n1CC(=O)Nc1ccc(C(F)(F)F)cc1Cl` [WO2025049746, Example 427], for which the concentration for half-maximal inhibition (IC50) in experiment [1] and in experiment [2] was 19 nM in each case.

With `CCc1c(N2CCN(C(=O)c3nc4c(cc3O)OCCC4)CC2)c(=O)n2nc(-c3ccc4c(c3)COC4)nc2n1CC(=O)Nc1ccc(C(F)(F)F)cc1Cl` [WO2025049746, Example 432], the IC50 was 75 nM in experiment [1] and 88 nM in experiment [2].

For the compound `CCc1c(N2CCN(C(=O)c3ncnc(C)c3O)CC2)c(=O)n2nc(-c3ccc4c(c3)COC4)nc2n1CC(=O)Nc1c(Cl)cc(C(F)(F)F)cc1OC1CC1` [WO2025049746, Example 414], the half-maximal inhibitory concentration (IC50) in experiment [1] was 1130 nM; in experiment [2], 2370 nM.

For the compound `CCc1c(N2CCN(C(=O)c3ncnc(C)c3O)[C@@H]3CC[C@@H]32)c(=O)n2nc(-c3ccc4c(c3)COC4(C)C)nc2n1CC(=O)Nc1ccc(C(F)(F)F)cc1Cl` [WO2025049746, Example 459], the IC50 in experiment [1] is 81 nM; in experiment [2], 91 nM.

`CCc1c(N2CCN(C(=O)c3ccccc3NS(=O)(=O)C3CC3)CC2)c(=O)n2nc(N(C)C)nc2n1CC(=O)Nc1ccc(C(F)(F)F)cc1Cl` [WO2025049746, Example 85]: the 50% inhibitory concentration (IC50) in experiment [1] is 28.2 nM; in experiment [2], 35.1 nM.

As for `CCc1c(N2CCN(C(=O)c3ncnc(C)c3O)CC2)c(=O)n2nc(-c3cccc4c3COC4)nc2n1CC(=O)Nc1ccc(C(F)(F)F)cc1Cl` [WO2025049746, Example 15], the results for the half-inhibitory concentration (IC50) in experiment [1] and in experiment [2] were 34.4 nM and 40 nM, respectively.

For `CCc1c(N2CCN(C(=O)c3ncnc(C)c3O)CC2)c(=O)n2nc(-c3ccc4c(c3)[C@H](C(F)(F)F)OC4)nc2n1CC(=O)Nc1ccc(C(F)(F)F)cc1Cl` [WO2025049746, Example 277], the IC50 in experiment [1] stood at 173 nM; in experiment [2], 176 nM.

As to `CCC1=C(N2CCN(C(=O)C3=C4NN=CC4CC=N3)CC2)C(=O)N2N=C(C3CCOCC3)NC2N1CC(=O)Nc1ccc(C(F)(F)F)cc1Cl` (stereo unspecified) [WO2025049746, Example 41], the IC50 worked out at 56.9 nM in experiment [1] and 83.9 nM in experiment [2].

`CCc1c(N2CCN(C(=O)c3ncnc(C)c3O)CC2)c(=O)n2c(C)c(-c3ccc4c(c3)COC4)nc2n1CC(=O)Nc1ccc(C(F)(F)F)cc1Cl` [WO2025049746, Example 451]: the IC50 was 6910 nM in experiment [1] and 6940 nM in experiment [2].

Turning to `CCc1c(N2CCN(C(=O)c3ncnc(C)c3O)CC2)c(=O)n2nc(-c3ccc4c(c3)CC(C)(C)N4C(C)=O)nc2n1CC(=O)Nc1ccc(C(F)(F)F)cc1Cl` [WO2025049746, Example 296], the IC50 was 38 nM in experiment [1] and 36 nM in experiment [2].

Turning to `CCc1c(N2CCN(C(=O)c3nccc(C)c3N)CC2)c(=O)n2nc(C3=CCOCC3)nc2n1CC(=O)Nc1ccc(C(F)(F)F)cc1Cl` [WO2025049746, Example 36], the IC50 in experiment [1] is 38.3 nM; in experiment [2], 42.9 nM.

Take `CCc1c(N2CCN(C(=O)c3ncnc(C)c3O)CC2)c(=O)n2nc(N3CCCn4nccc43)nc2n1CC(=O)Nc1ccc(C(F)(F)F)cc1Cl` [WO2025049746, Example 31]: the IC50 was found to be 28.9 nM in experiment [1] and 45.2 nM in experiment [2].

Regarding `Cc1ncnc(C(=O)N2CCN(c3c4n(c5nc(-c6ccc7c(c6)COC7(C)C)nn5c3=O)[C@@H](C(=O)Nc3ccc(C(F)(F)F)cc3Cl)C[C@@H]4C)[C@H]3CC[C@@H]32)c1O` [WO2025049746, Example 466], the half-inhibitory concentration (IC50) in experiment [1] is 9390 nM; in experiment [2] it was more than 29700 nM.

For `CCc1c(N2CCN(C(=O)c3ccnc(C)c3O)CC2)c(=O)n2nc(-c3ccc4c(c3)COC4(C)C)nc2n1CC(=O)Nc1ccc(C(F)(F)F)cc1Cl` [WO2025049746, Example 455], the IC50 in experiment [1] worked out at 48 nM; in experiment [2], 40 nM.

On to `CCc1c(N2CCN(C(=O)c3ncnc(C)c3O)CC2)c(=O)n2nc(-c3ccc4c(c3)CN(C)C4=O)nc2n1CC(=O)Nc1ccc(C(F)(F)F)cc1Cl` [WO2025049746, Example 185], for which the IC50 was determined as 26 nM in experiment [1] and 32 nM in experiment [2].

On to `CCc1c(N2CCN(C(=O)c3nc4n(c(=O)c3OCc3ccccc3)CCOC4)CC2)c(=O)n2nc(N(C)C)nc2n1CC(=O)Nc1ccc(C(F)(F)F)cc1Cl` [WO2025049746, Example 84], for which the values for the half-maximal inhibitory concentration (IC50) in experiment [1] and in experiment [2] were 38.4 nM and 40.7 nM, respectively.

In the case of `CCc1c(N2CCN(C(=O)c3ncnc(C)c3O)CC2)c(=O)n2nc(-c3cc4n(n3)CCCC4)nc2n1CC(=O)Nc1ccc(C(F)(F)F)cc1Cl` [WO2025049746, Example 184], the IC50 in experiment [1] stood at 58 nM; in experiment [2], 68 nM.

Turning to `CCc1c(N2CCN(C(C)=O)CC2)c(=O)n2nc(-c3ncc(O)cn3)nc2n1CC(=O)Nc1ccc(C(F)(F)F)cc1Cl` [WO2025049746, Example 434], the IC50 in experiment [1] turned out to be 102 nM; in experiment [2], 577 nM.

For `CCc1c(N2CCN(C(=O)c3ncnc(C)c3O)CC2)c(=O)n2nc(-c3ccc4c(c3F)COC4(C)C)nc2n1CC(=O)Nc1ccc(C(F)(F)F)cc1Cl` [WO2025049746, Example 216], the half-inhibitory concentration (IC50) in experiment [1] and in experiment [2] was 37 nM each time.

Take `CCc1c(N2CCN(C(=O)c3ncnc(C)c3O)CC2)c(=O)n2nc(-c3cccc4c3OCCO4)nc2n1CC(=O)Nc1ccc(SC(F)(F)F)cc1Cl` [WO2025049746, Example 399]: the 50% inhibitory concentration (IC50) in experiment [1] was determined as 115 nM; in experiment [2] it was 142 nM.

On to `CCc1c(N2CCN(C(=O)c3ncnc(C)c3O)CC2)c(=O)n2nc(-c3ccc4nn(C)c(F)c4c3)nc2n1CC(=O)Nc1ccc(C(F)(F)F)cc1Cl` [WO2025049746, Example 290], for which the 50% inhibitory concentration (IC50) in experiment [1] turned out to be 31 nM; in experiment [2], 29 nM.

Turning to `CCc1c(N2CCN(C(=O)c3ncnc(C)c3O)CC2)c(=O)n2nc(-c3ccn4c(C)nnc4c3)nc2n1CC(=O)Nc1ccc(C(F)(F)F)cc1Cl` [WO2025049746, Example 246], the half-inhibitory concentration (IC50) in experiment [1] turned out to be 42 nM; in experiment [2] it was 37 nM.

In the case of `CCc1c(N2CCN(C(=O)c3ccccc3NS(=O)(=O)C3CC3)CC2)c(=O)n2nc(-c3cccc4c3OCCO4)nc2n1CC(=O)Nc1ccc(C(F)(F)F)cc1Cl` [WO2025049746, Example 379], the figures for the 50% inhibitory concentration (IC50) in experiment [1] and in experiment [2] were 135 nM and 202 nM, respectively.

Turning to `CCc1c(N2CCN(C(=O)c3ncnc(C)c3O)CC2)c(=O)n2nc(-c3ccc4c(c3)COC4)nc2n1CC(=O)Nc1c(Cl)cc(C(F)(F)F)c2c1CC2` [WO2025049746, Example 384], the results for the IC50 in experiment [1] and in experiment [2] were 29 nM and 35 nM, respectively.

Turning to `CCc1c(N2CCN(C(=O)c3ncnc(C)c3O)CC2)c(=O)n2nc(-c3ccc4c(c3)CO[C@@H]4C(F)(F)F)nc2n1CC(=O)Nc1ccc(C(F)(F)F)cc1Cl` [WO2025049746, Example 276], the IC50 worked out at 85 nM in experiment [1] and 72 nM in experiment [2].

For `CCc1c(N2CCN(C(=O)c3ncnc(C)c3O)CC2)c(=O)n2nc(-c3cnc4cn(C)nc4c3)nc2n1CC(=O)Nc1ccc(C(F)(F)F)cc1Cl` [WO2025049746, Example 300], the IC50 is 57 nM in experiment [1] and 68 nM in experiment [2].

Take `CCc1c(N2CCN(C(=O)c3nccc4nc[nH]c34)CC2)c(=O)n2nc(-c3ccc4c(c3)COC4(C)C)nc2n1CC(=O)Nc1ccc(C(F)(F)F)cc1Cl` [WO2025049746, Example 456]: the 50% inhibitory concentration (IC50) in experiment [1] was determined as 55 nM; in experiment [2] it was 57 nM.

As for `CCc1c(N2CCN(C(=O)c3ncnc(C)c3O)CC2)c(=O)n2nc(-c3ccn4c(cc(=O)n4C(F)F)c3F)nc2n1CC(=O)Nc1ccc(C(F)(F)F)cc1Cl` [WO2025049746, Example 335], the IC50 in experiment [1] stood at 58 nM; in experiment [2], 64 nM.

Take `Cc1ncnc(C(=O)N2CCN(c3c4n(c5nc(-c6ccc7c(c6)COC7(C)C)nn5c3=O)[C@H](C(=O)Nc3ccc(C(F)(F)F)cc3Cl)C[C@H]4C)CC2)c1O` [WO2025049746, Example 469]: the IC50 stood at 27.5 nM in experiment [1] and 25.5 nM in experiment [2].

`CCc1c(N2CCN(C(=O)c3ncnc(C)c3O)CC2)c(=O)n2nc(-c3ccc4c(c3)CC(F)(F)C4)nc2n1CC(=O)Nc1ccc(C(F)(F)F)cc1Cl` [WO2025049746, Example 224]: the 50% inhibitory concentration (IC50) in experiment [1] and in experiment [2] was 47 nM throughout.

As for `CCc1c(N2CCN(C(=O)c3ncnc(C)c3O)CC2)c(=O)n2nc(N3CCC3)nc2n1CC(=O)Nc1c(Cl)cc(C(F)(F)F)c2c1CC2` [WO2025049746, Example 391], the half-inhibitory concentration (IC50) worked out at 82 nM in experiment [1] and 93 nM in experiment [2].

Take `CCc1c(N2CCN(C(=O)c3ncnc(C)c3O)CC2)c(=O)n2nc(C3=CCOCC3)nc2n1CC(=O)Nc1ccc(SC(F)(F)F)cc1` [WO2025049746, Example 356]: the IC50 in experiment [1] came to 634 nM; in experiment [2], 875 nM.
